In general, TGI refers to the concentration giving total growth inhibition.

The values that follow come from PubChem BioAssay (NCI).

Some test systems named below: KM12 colon; HCT-15 colon; SF-539 CNS; 786-0 renal; EKVX NSCLC; SK-OV-3 ovarian; MCF7 breast; ACHN renal; SK-MEL-28 melanoma; UACC-257 melanoma.
Assay in all cases: DTP human tumour cell line panel, 48 h

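Step 1: Grow cells in 96-well plates. Step 2: Expose to compound for 48 hours at 5 concentrations. Step 3: Interpolate endpoints linearly; if unreached, use highest concentration. TGI is the concentration that stops growth completely.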 Where a SMILES comes first, the peptide text is derived from it. The star is where a group is joined. Cbz = O=C(OCc1ccccc1)*

For `COc1ccc(C(OCC2OC(n3cc(C)c(=O)[nH]c3=O)CC2n2cc(Cn3cc(Cl)c(=O)[nH]c3=O)nn2)(c2ccccc2)c2ccccc2)cc1` (centres undefined), the TGI in the assay with KM12 colon, in the assay with HCT-15 colon, with SF-539 CNS, in the assay on 786-0 renal, in the assay with EKVX NSCLC and in the assay with SK-OV-3 ovarian was more than 100 µM throughout. Besides, the concentration for total growth inhibition (TGI) in the assay with MCF7 breast, in the assay with ACHN renal, in the assay on SK-MEL-28 melanoma and in the assay with UACC-257 melanoma was more than 100 µM throughout.
With `O=C(O)CCC(NC(=O)OCc1ccccc1)C(=O)NC(Cc1cnc[nH]1)C(=O)O` (stereo not drawn) (Cbz-Glu-His-OH; configuration not given here), the concentration for total growth inhibition (TGI) with KM12 colon, with HCT-15 colon, in the assay with SF-539 CNS, with 786-0 renal, with EKVX NSCLC and with SK-OV-3 ovarian was more than 100 µM throughout. Besides, the TGI in the assay with MCF7 breast, in the assay with ACHN renal, in the assay on SK-MEL-28 melanoma and with UACC-257 melanoma was more than 100 µM throughout.
For `N#CCCN(C(=O)Nc1ccccc1)[C@H]1CCCC[C@@H]1N(C(=O)Nc1ccccc1)c1ccccc1`, the TGI in the assay with KM12 colon, in the assay on HCT-15 colon, in the assay with SF-539 CNS, with 786-0 renal, in the assay on EKVX NSCLC and in the assay on SK-OV-3 ovarian was more than 100 µM in each case. Also, the total growth inhibition concentration (TGI) in the assay with MCF7 breast, in the assay on ACHN renal, in the assay with SK-MEL-28 melanoma and with UACC-257 melanoma was more than 100 µM throughout.
Turning to `CN=C(N=Nc1c(O)[nH]c2ccccc12)SCC(=O)c1ccc(Br)cc1`, the TGI in the assay with KM12 colon was more than 39.5 µM; in the assay with HCT-15 colon, more than 89.3 µM; with SF-539 CNS, 23.8 µM; with 786-0 renal, 16 µM; with EKVX NSCLC, more than 62.8 µM; in the assay on SK-OV-3 ovarian, 28.4 µM. The concentration for total growth inhibition (TGI) in the assay on MCF7 breast is 20.4 µM; in the assay with ACHN renal it was 52.2 µM; with SK-MEL-28 melanoma it was more than 78.1 µM; in the assay on UACC-257 melanoma, more than 20 µM.
For `O=C1CCCC1CN1CCCC1` (centres undefined), the TGI in the assay on KM12 colon was determined as 35 µM; in the assay with HCT-15 colon it was 5.89 µM; with SF-539 CNS, 36.7 µM; in the assay on 786-0 renal, 14.9 µM; in the assay with EKVX NSCLC, 42.8 µM; with SK-OV-3 ovarian it was 27.7 µM. Further, the concentration for total growth inhibition (TGI) was 8.53 µM with MCF7 breast, 15 µM in the assay with ACHN renal, 27.7 µM in the assay on SK-MEL-28 melanoma and 30.9 µM with UACC-257 melanoma.
Consider `CC(CO)(CO)N1C(=O)C2C3C=CC(C3)C2C1=O` (centres undefined), for which the TGI with KM12 colon, with HCT-15 colon, in the assay with SF-539 CNS, in the assay with 786-0 renal, with EKVX NSCLC and in the assay on SK-OV-3 ovarian was more than 100 µM throughout. Moreover, the TGI in the assay with MCF7 breast, with ACHN renal, in the assay on SK-MEL-28 melanoma and in the assay on UACC-257 melanoma was more than 100 µM each time.
With `Cc1nc2c(nc1C)-c1[nH]c3c(c1C(=O)C2=O)CCCC3=O`, the TGI amounted to 4.43 µM with KM12 colon; 8.08 µM with HCT-15 colon; 3.12 µM in the assay with SF-539 CNS; 7.34 µM with 786-0 renal; 3.71 µM in the assay with EKVX NSCLC; 6.87 µM with SK-OV-3 ovarian. Further, the concentration for total growth inhibition (TGI) is 2.98 µM in the assay with MCF7 breast, 7.35 µM in the assay with ACHN renal, 3.16 µM in the assay on SK-MEL-28 melanoma and 4.83 µM with UACC-257 melanoma.
Regarding `CSc1ncnc2c1ncn2CCC(=O)OC(C)(C)C`, the concentration for total growth inhibition (TGI) in the assay on KM12 colon, in the assay with SF-539 CNS, in the assay with 786-0 renal, in the assay with EKVX NSCLC, in the assay on SK-OV-3 ovarian and with MCF7 breast was more than 100 µM throughout. In addition, the TGI in the assay on ACHN renal, in the assay on SK-MEL-28 melanoma and with UACC-257 melanoma was more than 100 µM throughout.
Take `COC(=O)c1cc2ccc(N)nc2[nH]c1=O`: the total growth inhibition concentration (TGI) in the assay with KM12 colon, in the assay on HCT-15 colon, in the assay with SF-539 CNS, with 786-0 renal, in the assay with EKVX NSCLC and in the assay on SK-OV-3 ovarian was more than 100 µM throughout. The TGI with MCF7 breast, in the assay on ACHN renal, in the assay with SK-MEL-28 melanoma and in the assay with UACC-257 melanoma was more than 100 µM throughout.
For `CCOC(=O)CC[C@H](NC(=O)[C@H](N)Cc1ccc(N(CCCl)CCCl)cc1)C(=O)OCC`, the TGI in the assay on KM12 colon was 31.8 µM; in the assay with HCT-15 colon it was more than 55.7 µM; in the assay with SF-539 CNS it was 30.8 µM; with 786-0 renal it was 23.5 µM; in the assay with EKVX NSCLC it was more than 67.9 µM; in the assay on SK-OV-3 ovarian, more than 72.8 µM. Also, the TGI is more than 87.3 µM in the assay on MCF7 breast, more than 100 µM in the assay on ACHN renal, more than 54.3 µM with SK-MEL-28 melanoma and 37.9 µM in the assay with UACC-257 melanoma.
As to `CC(=O)c1[nH]c(NCc2ccccc2)c(C(=S)Nc2ccccc2)c1N`, the total growth inhibition concentration (TGI) is 36.9 µM in the assay with KM12 colon; 39.9 µM with HCT-15 colon; 32.1 µM in the assay on SF-539 CNS; 32.5 µM in the assay with 786-0 renal; more than 100 µM in the assay with EKVX NSCLC; more than 100 µM in the assay on SK-OV-3 ovarian. Moreover, the TGI came to 37.2 µM with MCF7 breast, 85.2 µM in the assay with ACHN renal, 52 µM with SK-MEL-28 melanoma and 49.2 µM with UACC-257 melanoma.
Turning to `S=C(S)NCNC(=S)S.[Zn+2]`, the TGI in the assay with KM12 colon, in the assay on HCT-15 colon, in the assay on SF-539 CNS, with 786-0 renal, with EKVX NSCLC and with SK-OV-3 ovarian was more than 100 µM in each case. Besides, the TGI in the assay with MCF7 breast, in the assay on ACHN renal, in the assay on SK-MEL-28 melanoma and in the assay on UACC-257 melanoma was more than 100 µM each time.
Regarding `COC(=O)C1=C(C(=O)NNc2ccccc2)N(c2cccnc2Cl)C(c2ccccc2)=CC1c1ccccc1` (centres undefined), the TGI in the assay on KM12 colon, in the assay with HCT-15 colon, with SF-539 CNS, in the assay with 786-0 renal, in the assay with EKVX NSCLC and in the assay on SK-OV-3 ovarian was more than 100 µM throughout. For the same compound, the TGI in the assay with MCF7 breast, in the assay with ACHN renal, in the assay with SK-MEL-28 melanoma and in the assay with UACC-257 melanoma was more than 100 µM throughout.
